Results reported in US9676789B2, “Aminated derivative of homoharringtonine, preparation method therefor, and application thereof” (HANGZHOU BENSHENG PHARMACEUTICAL CO., LTD., priority 2011, dated 2017).
Values after ≈ are worked out from the molar mass of the structure shown.

Tests used:
[1] = test system: RPMI8226 (multiple myeloma); assay: MTT multiple myeloma cell growth inhibition, 72 h; type: cell-based, human; conditions: Homo sapiens, RPMI-8226, RPMI8226, 72 h; for IC50: read-out: IC50; for IC90: read-out: IC90
Method: Multiple myeloma and lymphoma cell lines: RPMI8226 (multiple myeloma), purchased from Fuxiang Bio-tech Co. Ltd., Shanghai, China.
(§1) Obtaining 6000 well-growing leukemia cells and inoculating them into wells of a 96-well cell culture plate. The culture medium is the 1640 cell culture medium containing 10% fetal bovine serum. After adding the homoharringtonine derivatives of different concentrations and mixing uniformly, placing the plate in a carbon dioxide cell incubator (5% CO2) at 37° C. and incubating for 72 hours. Then the viable cell concentration is determined by the MTT method.

[2] = test system: PC-3 (prostate cancer); assay: MTT solid tumor cell growth inhibition, 72 h; type: cell-based, human; conditions: Homo sapiens, PC-3, 72 h; for IC50: read-out: IC50; for IC90: read-out: IC90
Method: (§2) Human solid tumor cell lines: Hep-2 ([…]), A549 (human lung cancer), CaES-17 (esophageal cancer cell), PC-3 (prostate cancer), CNE (nasopharyngeal carcinoma cell), and SK-OV-3 (ovarian cancer cell), all of which are purchased from China Center For Type Culture Collection; RKO (human colon adenocarcinoma cell), MGC 803 (human gastric cancer cell), MG63 (osteosarcoma) and U87 MG (malignant glioma cell), all of which are purchased from Fuxiang Bio-tech Co. Ltd., Shanghai, China; PANC-1 (pancreatic cancer), Huh7 (human liver cancer cell), Becap37 (human breast cancer cell), and Hela (human cervical cancer cell), all of which are donated by Cancer Research Institute of Zhejiang University, China.
(§3) Obtaining 4000 well-growing human solid tumor cells and inoculating them into wells of a 96-well cell culture plate. The culture medium is DMEM High Glucose cell culture medium containing 10% fetal bovine serum. The plate is placed in a carbon dioxide cell incubator (5% CO2) at 37° C. and incubating for 24 hours. After adding the homoharringtonine derivatives of different concentration and mixing uniformly, the plate is placed in a carbon dioxide cell incubator (5% CO2) at 37° C. and incubating for 72 hours. Then the viable cell concentration is determined by the MTT method and the cell viability (%) after drug treatment is calculated. In this experiment, the cell viability of control group (not treated with any compound) is set as 100%.

[3] = test system: CNE (nasopharyngeal carcinoma cell); assay: MTT solid tumor cell growth inhibition, 72 h; type: cell-based, human; conditions: Homo sapiens; for IC50: read-out: IC50; for IC90: read-out: IC90
Method: as §2, §3

[4] = test system: CaES-17 (esophageal cancer cell); assay: MTT solid tumor cell growth inhibition, 72 h; type: cell-based, human; conditions: Homo sapiens, CaEs17, CaES-17, 72 h; for IC50: read-out: IC50; for IC90: read-out: IC90
Method: as §2, §3

[5] = test system: PANC-1 (pancreatic cancer); assay: MTT solid tumor cell growth inhibition, 72 h; type: cell-based, human; conditions: Homo sapiens, PANC-1, 72 h; for IC50: read-out: IC50; for IC90: read-out: IC90
Method: as §2, §3

[6] = test system: U87 MG (malignant glioma cell); assay: MTT solid tumor cell growth inhibition, 72 h; type: cell-based, human; conditions: Homo sapiens, U-87 MG; for IC50: read-out: IC50; for IC90: read-out: IC90
Method: as §2, §3

[7] = test system: MG63 (osteosarcoma); assay: MTT solid tumor cell growth inhibition, 72 h; type: cell-based, human; conditions: Homo sapiens, MG 63, 72 h; for IC50: read-out: IC50; for IC90: read-out: IC90
Method: as §2, §3

[8] = test system: SK-OV-3 (ovarian cancer cell); assay: MTT solid tumor cell growth inhibition, 72 h; type: cell-based, human; conditions: Homo sapiens, SK-OV-3, 72 h; for IC50: read-out: IC50; for IC90: read-out: IC90
Method: as §2, §3

[9] = test system: Huh7 (human liver cancer cell); assay: MTT solid tumor cell growth inhibition, 72 h; type: cell-based; conditions: Homo sapiens, Huh-7, Huh7, 72 h; for IC50: read-out: IC50; for IC90: read-out: IC90
Method: as §2, §3

[10] = test system: MGC 803 (human gastric cancer cell); assay: MTT solid tumor cell growth inhibition, 72 h; type: cell-based; conditions: Homo sapiens, MGC 803, 72 h; for IC50: read-out: IC50; for IC90: read-out: IC90
Method: as §2, §3

[11] = test system: Becap37 (human breast cancer cell); assay: MTT solid tumor cell growth inhibition, 72 h; type: cell-based; conditions: Homo sapiens, Becap37, 72 h; for IC50: read-out: IC50; for IC90: read-out: IC90
Method: as §2, §3

[12] = test system: Hela (human cervical cancer cell); assay: MTT solid tumor cell growth inhibition, 72 h; type: cell-based; conditions: Homo sapiens, HeLa; for IC50: read-out: IC50; for IC90: read-out: IC90
Method: as §2, §3

[13] = test system: RKO (human colon adenocarcinoma cell); assay: MTT solid tumor cell growth inhibition, 72 h; type: cell-based; conditions: Homo sapiens; for IC50: read-out: IC50; for IC90: read-out: IC90
Method: as §2, §3

[14] = test system: A549 (human lung cancer); assay: MTT solid tumor cell growth inhibition, 72 h; type: cell-based; conditions: Homo sapiens, A549, 72 h; for IC50: read-out: IC50; for IC90: read-out: IC90
Method: as §2, §3

[15] = test system: Hep-2 (human hepatocellular carcinoma); assay: MTT solid tumor cell growth inhibition, 72 h; type: cell-based; conditions: Homo sapiens, HEp-2, Hep2, 72 h; for IC50: read-out: IC50; for IC90: read-out: IC90
Method: as §2, §3

[16] = test system: Kasumi-1 (acute myeloid leukemia M2 type, AML-M2); assay: MTT leukemia cell growth inhibition, 72 h; type: cell-based, human; conditions: Homo sapiens, Kasumi-1, 72 h; for IC50: read-out: IC50; for IC90: read-out: IC90
From the text: (§4) Leukemia cell lines: K562/adr (drug-resistant, chronic myeloid leukemia, CML), NB4 (acute promyelocytic leukemia, AML), Kasumi-1 (acute myeloid leukemia M2 type, AML-M2), Jurkat (acute lymphoblastic leukemia, ALL), all of which are donated by Cancer Research Institute of Zhejiang University, China; and H9 (acute lymphoblastic leukemia, ALL), which is purchased from China Center for Type Culture Collection.
as §1, with “method. In this experiment, the cell viability in control group (not treated with any compound) is set as 100%.” for “method.”

[17] = test system: NB4 (acute promyelocytic leukemia, AML); assay: MTT leukemia cell growth inhibition, 72 h; type: cell-based, human; conditions: Homo sapiens, NB4, 72 h; for IC50: read-out: IC50; for IC90: read-out: IC90
From the text: as §4
as §1, with “method. In this experiment, the cell viability in control group (not treated with any compound) is set as 100%.” for “method.”

[18] = test system: H9 (acute lymphoblastic leukemia, ALL); assay: MTT leukemia cell growth inhibition, 72 h; type: cell-based, human; conditions: Homo sapiens, H9, 72 h; for IC50: read-out: IC50; for IC90: read-out: IC90
From the text: as §4
as §1, with “method. In this experiment, the cell viability in control group (not treated with any compound) is set as 100%.” for “method.”

[19] = test system: Jurkat (acute lymphoblastic leukemia, ALL); assay: MTT leukemia cell growth inhibition, 72 h; type: cell-based, human; conditions: Homo sapiens; for IC50: read-out: IC50; for IC90: read-out: IC90
From the text: as §4
as §1, with “method. In this experiment, the cell viability in control group (not treated with any compound) is set as 100%.” for “method.”

[20] = test system: K562/adr (drug-resistant, chronic myeloid leukemia, CML); assay: MTT leukemia cell growth inhibition, 72 h; type: cell-based, human; conditions: Homo sapiens, K562/Adr; for IC50: read-out: IC50; for IC90: read-out: IC90
From the text: as §4
as §1, with “method. In this experiment, the cell viability in control group (not treated with any compound) is set as 100%.” for “method.”

| Structure (SMILES) | IC50 [1] [µg/mL] | IC90 [1] [µg/mL] | IC50 [2] [µg/mL] | IC90 [2] [µg/mL] | IC50 [3] [µg/mL] | IC90 [3] [µg/mL] | IC50 [4] [µg/mL] | IC90 [4] [µg/mL] | IC50 [5] [µg/mL] | IC90 [5] [µg/mL] | IC50 [6] [µg/mL] | IC90 [6] [µg/mL] | IC50 [7] [µg/mL] | IC90 [7] [µg/mL] | IC50 [8] [µg/mL] | IC90 [8] [µg/mL] | IC50 [9] [µg/mL] | IC90 [9] [µg/mL] | IC50 [10] [µg/mL] | IC90 [10] [µg/mL] | also measured |
| --- | --- | --- | --- | --- | --- | --- | --- | --- | --- | --- | --- | --- | --- | --- | --- | --- | --- | --- | --- | --- | --- |
| COC1=C[C@]23CCCN2CCc2cc4c(cc2[C@@H]3[C@@H]1OC(=O)[C@@](O)(CCCC(C)(C)O)CC(=O)N1CCN(C(C)C)CC1)OCO4 [BS-HH-034] | 0.47 (≈ 0.732 µM) | 3.72 (≈ 5.8 µM) | 0.91 (≈ 1.42 µM) | > 16 | 0.49 (≈ 0.763 µM) | 16 (≈ 24.9 µM) | 1.91 (≈ 2.98 µM) | 16 (≈ 24.9 µM) | 1.94 (≈ 3.02 µM) | > 16 | 0.89 (≈ 1.39 µM) | 5.74 (≈ 8.94 µM) | 0.32 (≈ 0.499 µM) | 16 (≈ 24.9 µM) | 2.81 (≈ 4.38 µM) | > 16 | 1.05 (≈ 1.64 µM) | > 16 | 0.81 (≈ 1.26 µM) | 11.8 (≈ 18.4 µM) | IC50 [11]: 0.81 µg/mL (≈ 1.26 µM); IC90 [11]: > 16 µg/mL; IC50 [12]: 1.97 µg/mL (≈ 3.07 µM); IC90 [12]: > 16 µg/mL; IC50 [13]: 0.18 µg/mL (≈ 0.28 µM); IC90 [13]: 1.25 µg/mL (≈ 1.95 µM); IC50 [14]: 1.74 µg/mL (≈ 2.71 µM); IC90 [14]: > 16 µg/mL; IC50 [15]: 1.29 µg/mL (≈ 2.01 µM); IC90 [15]: > 16 µg/mL; IC50 [16]: 0.31 µg/mL (≈ 0.483 µM); IC90 [16]: 1.77 µg/mL (≈ 2.76 µM); IC50 [17]: 0.48 µg/mL (≈ 0.748 µM); IC90 [17]: 2.3 µg/mL (≈ 3.58 µM); IC50 [18]: 0.6 µg/mL (≈ 0.935 µM); IC90 [18]: 2.7 µg/mL (≈ 4.21 µM); IC50 [19]: 0.46 µg/mL (≈ 0.717 µM); IC90 [19]: 16 µg/mL (≈ 24.9 µM); IC50 [20]: 4.53 µg/mL (≈ 7.06 µM); IC90 [20]: 16 µg/mL (≈ 24.9 µM) |
| COC1=C[C@]23CCCN2CCc2cc4c(cc2[C@@H]3[C@@H]1OC(=O)[C@@](O)(CCCC(C)(C)O)CC(=O)N1CCN(c2ccccn2)CC1)OCO4 [BS-HH-044] | 0.48 (≈ 0.709 µM) | 3.36 (≈ 4.96 µM) | 0.78 (≈ 1.15 µM) | > 16 | 0.76 (≈ 1.12 µM) | > 16 | 1.63 (≈ 2.41 µM) | 16 (≈ 23.6 µM) | 1.91 (≈ 2.82 µM) | > 16 | 0.64 (≈ 0.946 µM) | 16 (≈ 23.6 µM) | 0.8 (≈ 1.18 µM) | > 16 | 3.97 (≈ 5.87 µM) | > 16 | 0.94 (≈ 1.39 µM) | > 16 | 0.74 (≈ 1.09 µM) | > 16 | IC50 [11]: 0.71 µg/mL (≈ 1.05 µM); IC90 [11]: > 16 µg/mL; IC50 [12]: 1.91 µg/mL (≈ 2.82 µM); IC90 [12]: > 16 µg/mL; IC50 [13]: 0.16 µg/mL (≈ 0.236 µM); IC90 [13]: 2.37 µg/mL (≈ 3.5 µM); IC50 [14]: 1.76 µg/mL (≈ 2.6 µM); IC90 [14]: > 16 µg/mL; IC50 [15]: 1.23 µg/mL (≈ 1.82 µM); IC90 [15]: > 16 µg/mL; IC50 [16]: 0.38 µg/mL (≈ 0.561 µM); IC90 [16]: 2.25 µg/mL (≈ 3.32 µM); IC50 [17]: 0.25 µg/mL (≈ 0.369 µM); IC90 [17]: 0.64 µg/mL (≈ 0.946 µM); IC50 [18]: 1.41 µg/mL (≈ 2.08 µM); IC90 [18]: 16 µg/mL (≈ 23.6 µM); IC50 [19]: 0.48 µg/mL (≈ 0.709 µM); IC90 [19]: 16 µg/mL (≈ 23.6 µM); IC50 [20]: 5.18 µg/mL (≈ 7.65 µM); IC90 [20]: 16 µg/mL (≈ 23.6 µM) |
